In patent US20120142634A1, “Method of Treating Cancer with a Combination of a Proteasome Inhibitor and Salubrinal” (MOUNT SINAI SCHOOL OF MEDICINE OF NEW YORK UNIVERSITY, priority 2008, published 2012):
Entries after “also recorded” stand apart in the source; their conditions may differ. Where a SMILES comes first, the peptide text is derived from it. The star is where a group is joined. Cbz = O=C(OCc1ccccc1)*

Columns and labels:
Assay type in all cases: cell-based
RPMI8226 cells [1] = assay: Cell cycle analysis by propidium iodide staining and flow cytometry; conditions: for cell death (sub-G0 population): MG-132 400 nM or Bortezomib 4 nM, 24-48 hours
Protocol: (§1) Reagents, antibodies, RT-PCR, cell lines and tissue culture, plasmids. Proteasome inhibitor (MG-132, Velcade®; each commercially available) treatments were performed using 400 nM MG-132 or 4 nM Bortezomib (Velcade®) for 24 hours. The drug was then removed by serial washes with PBS and the remaining viable cells were replated. Salubrinal treatments were performed using the drug at 5 or 10 μg/ml, as indicated, for 24 hours. RPMI8226 cells contain a c-MYC insertion on t(16;22)(q32;q11):der16; U266B1 cells (t(11;14)) were from ATCC. Cells were cultured according to ATCC recommendations. Antibodies (identified by the antigen specifically recognized): p-Rb, Rb, p-eIF2α, eIF2α, GCN2, p-GCN2, p-PKR and PKR from Cell Signaling (Beverly, Mass.), p-PERK and PERK from Santa Cruz Biotechnology (Santa Cruz, Calif.), BiP from BD (San Jose, Calif.), GAPDH from Calbiochem (Beverly, Mass.), and β-tubulin from Abcam (Cambridge, Mass.). Total RNA was extracted using Trizol (Invitrogen, Carlsbad, Calif.). Primer sequences were published previously (Sequeira, et al., PLoS ONE 2(7):e615 2007, incorporated herein by reference in its entirety). The pCLBabe-eIF2αS51D plasmid was provided by Dr. David Schubert (Salk Institute, La Jolla, Calif.) and can be constructed using known techniques. Transfection of RPMI8226 cells was performed using Amaxa technology according to the manufacturer's instructions (Gaithersburg, Md.).
Cell cycle analysis, label retention assay. Cell cycle analysis was performed using propidium iodide (PI)/RNAse staining buffer from BD according to the manufacturer's instruction. For label retention and viability quantification, cells were treated with proteasome inhibitors or DMSO for 24 hours, then stained with 50 nM CFDA/SE (Molecular Probes, Eugene, Oreg.) for 15 minutes and replated. Prior to analysis, cells were stained using Hoechst-33342 (10 μg/ml) for 15 minutes at 4° C. to determine cell viability. Cells were then fixed using 3% paraformaldehyde for 20 minutes and analyzed by flow cytometry (LSR-II from BD).

[2] = system: diffuse B-cell lymphoma U937 cells; assay: Bortezomib-induced killing, with or without Salubrinal; conditions: 4 nM Bortezomib
[3] = system: K-562 chronic myeloid leukemia cells; assay: as above
HEp3 HNSCC cells = assay: as above
[4] = system: Raji Burkitt's lymphoma cells; assay: as above
RPMI8226 cells [5] = assay: Viability assay (trypan blue)
Protocol: as §1, with “Salubrinal treatments were performed using the drug at 5 or 10 μg/ml, as indicated, for 24 hours.” left out
(§2) Viability assay, Immunoblotting. Cell viability was assessed using trypan blue. Immunoblotting was performed using convention techniques, as described previously Aguirre-Ghiso, et al., Cancer Res. 63(7):1684-1695 2003, incorporated herein by reference in its entirety.

U266B1 cells = assay: Viability assay (trypan blue); conditions: Salubrinal combined with MG-132 or Bortezomib, 24 hours
Protocol: as §1, with “Transfection of RPMI8226 cells was performed using Amaxa technology according to the manufacturer's instructions (Gaithersburg, Md.).” left out
Viability assay, Immunoblotting. Cell viability was assessed using trypan blue. […]

U937 cells = assay: Bortezomib-induced killing, with or without Salubrinal
eIF2α = assay: Western blot for eIF2α phosphorylation in RPMI8226 cells; conditions: for eIF2α phosphorylation: single agent, acute phase (Salubrinal 8 hours; MG-132 8-24 hours)
Protocol: as §1, with “Salubrinal treatments were performed using the drug at 5 or 10 μg/ml, as indicated, for 24 hours.” left out
as §2
(§3) Image quantification and statistical analysis. Image quantification was performed using ImageJ from NIH. Statistical analyses were performed using Prism 4.0 from GraphPad Software (La Jolla, Calif.) and the Student's t-test.

CHOP mRNA = assay: RT-PCR for CHOP mRNA in RPMI8226 cells; conditions: acute combination of Salubrinal and Bortezomib (4 nM, 8 hours)
Protocol: as §1, with “Proteasome inhibitor (MG-132, Velcade®; each commercially available) treatments were performed using 400 nM MG-132 or 4 nM Bortezomib (Velcade®) for 24 hours.” left out, “Salubrinal treatments were performed using the drug at 5 or 10 μg/ml, as indicated, for 24 hours.” left out
as §3

[6] = Bortezomib combined with Salubrinal

SMILES	cell death (sub-G0 population) (RPMI8226 cells [1])	sensitivity to Bortezomib [2]	sensitivity to Bortezomib ([3]; 4 nM Bortezomib)	induction of killing (HEp3 HNSCC cells; Bortezomib alone)	induction of killing ([4]; Bortezomib alone)	basal viability or growth (RPMI8226 cells [5]; RPMI8226, 5 μM Salubrinal alone)	cell death (RPMI8226 cells [5]; RPMI8226, Salubrinal combined with MG-132 or Bortezomib, 24 hours)	reduction in the number of viable cells (RPMI8226 cells [5]; arrested cells surviving proteasome inhibition, 5 μM Salubrinal, 24 hours)	cell death (U266B1 cells)	enhancement of Bortezomib-induced killing by Salubrinal (U937 cells)	enhancement of Bortezomib-induced killing by Salubrinal [3]	induction of killing (HEp3 HNSCC cells; [6])	induction of killing [4, 6]	p-eIF2α levels (eIF2α; Salubrinal combined with proteasome inhibitor, 8 hours)	eIF2α phosphorylation (eIF2α)	CHOP mRNA (CHOP mRNA)	number of cells in G0-G1 in cells surviving proteasome inhibition (RPMI8226 cells [1]; MG-132 400 nM or Bortezomib 4 nM for 24 hours, then washout, control about 35%)	absolute number of viable cells after drug washout and replating (RPMI8226 cells [5]; RPMI8226, 400 nM MG-132 for 24 hours, then washed)
CC(C)C[C@H](NC(=O)[C@H](Cc1ccccc1)NC(=O)c1cnccn1)B(O)O [Bortezomib]	strongly induced cell death	highly sensitive	intermediately sensitive	neither Bortezomib alone nor its combination with Salubrinal was effective	neither Bortezomib alone nor its combination with Salubrinal was effective	–	–	–	–	–	–	–	–	–	–	–	–	–
O=C(/C=C/c1ccccc1)NC(NC(=S)Nc1cccc2cccnc12)C(Cl)(Cl)Cl (centres unmarked) [Salubrinal]	–	–	–	–	–	no significant induction of cell death; also recorded: no effect	70-90%	approximately 10 fold	70-90%	neither of these cell lines was susceptible	neither of these cell lines was susceptible	neither Bortezomib alone nor its combination with Salubrinal was effective	neither Bortezomib alone nor its combination with Salubrinal was effective	highest levels of p-eIF2α	increased phosphorylation of eIF2α	strong induction	–	–
CC(C)C[C@@H](C=O)NC(=O)[C@H](CC(C)C)NC(=O)[C@H](CC(C)C)NC(=O)OCc1ccccc1 [MG-132] (Cbz-Leu-Leu-Leu-aldehyde)	strongly induced cell death	–	–	–	–	–	–	–	–	–	–	–	–	–	increased eIF2α-phosphorylation	–	55-65%	remained constant for 7 days
